Earlier results as cited in patent publication EP3003384B1 (Lamda Laboratories S.A., priority 2014, dated 2015).
Counter-ions that a name gives are not always drawn.

Conditions: at room temperature

In the case of `CNCC[C@@H](Oc1ccccc1C)c1ccccc1` [atomoxetine hydrochloride], the soluble in water is listed as 27.8 mg/mL.
